Assay results: the supplement of paper PMC10011410
± gives the standard deviation of the averaged measurements.

Experiments:
U-2 OS [1] = experiment: intracellular GSH:GSSG ratio (calculated); higher = more reduced glutathione pool; conditions: 24 h
Method: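 Intracellular glutathione in U-2 OS cells after 24 h compound treatment at 5, 10 and 20 uM (some at 40 and 80 uM). Total glutathione and GSSG were measured with the GSH/GSSG-Glo kit, and the GSH:GSSG ratio was calculated. Mean of five technical replicate plates.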

U-2 OS [2] = experiment: total intracellular glutathione (GSH + GSSG) relative to DMSO (% of control); higher = more glutathione; conditions: 24 h
Method: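 Total intracellular glutathione (GSH + GSSG) in U-2 OS cells by GSH/GSSG-Glo after 24 h compound treatment at 5, 10 and 20 uM (some at 40 and 80 uM), as percent of DMSO control. Five technical replicate plates, averaged.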

U-2 OS [3] = experiment: cell viability (CellTiter-Glo) relative to DMSO (% of control); higher = more viable; conditions: 24 h
Method: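 Cell viability of U-2 OS cells by CellTiter-Glo after 24 h compound treatment at 5, 10 and 20 uM (some at 40 and 80 uM), measured in parallel with the glutathione assay, as percent of DMSO control. Five technical replicate plates, averaged.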

U-2 OS [4] = experiment: AUC of culture confluence over time (live-cell imaging) (AUC (confluence % x time)); higher = more confluent culture (less growth inhibition)
In short: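 Using an Incucyte S3 with a 10x objective, confluence of U-2 OS cells was imaged every 4 h for up to 60 h at 37 °C. The cells had been seeded at 750 per well in 384-well plates in F-12K medium with 10% FBS and treated by pin tool 24 h later, most compounds at 20, 10 and 5 μM with 0.2% DMSO. The value given is the area under the confluence-versus-time curve.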

U-2 OS [5] = experiment: relative cell count vs DMSO (cell painting) (fraction of DMSO control); higher = more cells remaining (less cytotoxic); conditions: 24 h
In short: (§1)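 In this cell painting assay, roughly 1,500 U-2 OS cells per well in 384-well plates were pin-tool treated at 37 °C for 24 h, typically at six 2-fold steps from 20 μM down to 625 nM. Cells were stained with MitoTracker, concanavalin A, phalloidin, wheat germ agglutinin, Hoechst and SYTO 14, imaged on an Opera Phenix, and analysed in CellProfiler with normalization to same-plate DMSO cells. Reported values are means of four replicate plates, with the activity score defined as the Mahalanobis distance from DMSO wells and cell count defined relative to DMSO wells.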

U-2 OS [6] = experiment: cell painting activity score (Mahalanobis distance from DMSO wells); higher = stronger morphological phenotype; conditions: 24 h
In short: as §1

| SMILES | intracellular GSH:GSSG ratio (U-2 OS [1]; 5 µM) | intracellular GSH:GSSG ratio (U-2 OS [1]; 10 µM) | intracellular GSH:GSSG ratio (U-2 OS [1]; 20 µM) | total intracellular glutathione (U-2 OS [2]; 5 µM) | total intracellular glutathione (U-2 OS [2]; 10 µM) | total intracellular glutathione (U-2 OS [2]; 20 µM) | cell viability (U-2 OS [3]; 5 µM) | cell viability (U-2 OS [3]; 10 µM) | cell viability (U-2 OS [3]; 20 µM) | AUC of culture confluence over time (U-2 OS [4]; 5 µM) | AUC of culture confluence over time (U-2 OS [4]; 10 µM) | AUC of culture confluence over time (U-2 OS [4]; 20 µM) | relative cell count (U-2 OS [5]; 0.625 µM) | relative cell count (U-2 OS [5]; 1.25 µM) | relative cell count (U-2 OS [5]; 2.5 µM) | relative cell count (U-2 OS [5]; 5 µM) | relative cell count (U-2 OS [5]; 10 µM) | relative cell count (U-2 OS [5]; 20 µM) | cell painting activity score (U-2 OS [6]; 0.625 µM) | cell painting activity score (U-2 OS [6]; 1.25 µM) | cell painting activity score (U-2 OS [6]; 2.5 µM) | cell painting activity score (U-2 OS [6]; 5 µM) | cell painting activity score (U-2 OS [6]; 10 µM) | cell painting activity score (U-2 OS [6]; 20 µM) | relative cell count (U-2 OS [5]; 0.15624 µM) | relative cell count (U-2 OS [5]; 0.3124 µM) | cell painting activity score (U-2 OS [6]; 0.15624 µM) | cell painting activity score (U-2 OS [6]; 0.3124 µM) |
| --- | --- | --- | --- | --- | --- | --- | --- | --- | --- | --- | --- | --- | --- | --- | --- | --- | --- | --- | --- | --- | --- | --- | --- | --- | --- | --- | --- | --- |
| CO[C@H]1C[C@@H]2CC[C@@H](C)[C@@](O)(O2)C(=O)C(=O)N2CCCC[C@H]2C(=O)O[C@H]([C@H](C)C[C@@H]2CC[C@@H](O)[C@H](OC)C2)CC(=O)[C@H](C)/C=C(\C)[C@@H](O)[C@@H](OC)C(=O)[C@H](C)C[C@H](C)/C=C/C=C/C=C/1C | 25.7 | 24.7 | 24.9 | 90.5 ± 5.3 | 93.7 ± 5.7 | 102 ± 7 | 87.3 ± 5 | 90.6 ± 2.9 | 80 ± 6.5 | 33.6 | 34.2 | 34.8 | 0.953 | 0.926 | 0.903 | 0.956 | 0.916 | 0.852 | 11.4 | 12.3 | 12.1 | 10.8 | 12.1 | 11.9 | – | – | – | – |
| O=C(NNS(=O)(=O)c1ccccc1)c1cc(-c2ccnnc2)ccc1F | 23.9 | 21.4 | 23.2 | 98 ± 3.1 | 94.3 ± 3 | 94.6 ± 4.8 | 95.6 ± 5.4 | 87.5 ± 7.7 | 88.5 ± 3.6 | 49.6 | 50 | 49.6 | 0.985 | 0.95 | 0.967 | 1.02 | 0.939 | 1.04 | 4.47 | 4.16 | 3.77 | 3.67 | 4.24 | 4.38 | – | – | – | – |
| O=C1CCC(=O)N1c1ccc(O)cc1 | 43 | 32.2 | 56.3 | 105 ± 13 | 87.4 ± 4.5 | 102 ± 5.2 | 107 ± 6.3 | 106 ± 7.5 | 105 ± 5.4 | 48.1 | 42.4 | 43.3 | 1.02 | 0.976 | 0.966 | 0.904 | 1.03 | 1.04 | 4.12 | 3.43 | 3.81 | 3.52 | 4.26 | 2.95 | – | – | – | – |
| CCOc1cc2ncc(C#N)c(Nc3ccc(OCc4ccccn4)c(Cl)c3)c2cc1NC(=O)/C=C/CN(C)C | 11.7 | 10.4 | 8.69 | 58.3 ± 2.8 | 61.3 ± 2.5 | 59.5 ± 3.7 | 71.7 ± 4.9 | 71 ± 3.7 | 73.1 ± 7.3 | 33.1 | 34.1 | 21.3 | 0.995 | 0.842 | 0.811 | 0.76 | 0.778 | 0.757 | 6.66 | 11.4 | 14.6 | 10.9 | 9.93 | 13.4 | – | – | – | – |
| Nc1nc(-c2ccccc2)[n+](-c2ccccc2)s1 | 25.1 | 18.2 | 2.7 | 113 ± 5.1 | 117 ± 8.2 | 26.8 ± 7.4 | 106 ± 3.7 | 105 ± 6.1 | 16 ± 10 | 39.6 | 44.4 | 43.3 | 1.06 | 1.11 | 1.04 | 1.13 | 1.08 | 0.605 | 7.03 | 3.42 | 2.65 | 3.42 | 3.28 | 9.72 | – | – | – | – |
| CNC(=O)Nc1ccc2c(c1)CC[C@@]21OC(=O)N(CC(=O)N(Cc2ccc(F)cc2)[C@@H](C)C(F)(F)F)C1=O | 27.9 | 31.4 | 30.9 | 81.7 ± 3.5 | 74.9 ± 6.2 | 79 ± 7.5 | 93.1 ± 1.9 | 83.6 ± 4.3 | 85.3 ± 5 | 44.7 | 44 | 42.6 | 1.04 | 0.976 | 1.04 | 1.02 | 1.05 | 1 | 8.32 | 8.2 | 8.22 | 8.54 | 9.44 | 10.2 | – | – | – | – |
| O=S1(=O)CC(N2CCCC2)c2ccccc21 (stereo not given) | 30.8 | 37.7 | 28.5 | 97.6 ± 3.1 | 98.8 ± 6.1 | 102 ± 5.3 | 103 ± 3.5 | 103 ± 6.5 | 109 ± 6.8 | 49.4 | – | – | 0.972 | 0.969 | 0.957 | 0.962 | – | – | 5.04 | 4.39 | 4.11 | 3.43 | – | – | 0.962 | 0.979 | 4.13 | 3.66 |
| CCCCCC[C@H]1C(=O)O[C@H](C)[C@H](NC(=O)c2cccc(NC=O)c2O)C(=O)O[C@@H](C)[C@@H]1OC(=O)CC(C)C | 21.6 | 23.5 | 22.4 | 65.6 ± 6.7 | 69.4 ± 4 | 66.1 ± 3 | 54.1 ± 5.4 | 59.2 ± 1.6 | 56.2 ± 3.1 | 38 | 38 | 38.3 | 0.8 | 0.81 | 0.802 | 0.8 | 0.783 | 0.831 | 12.7 | 13.2 | 12.9 | 12.9 | 12.8 | 12.2 | – | – | – | – |
